Target: T1, Dimer of Gag-Pol polyprotein [489-587] (Human immunodeficiency virus 1, UniProt P12497)
T1 construct: 489-587
Test: Protease Inhibition Assay
Conditions: pH 5.5; 37 °C
Excerpt: The IC50 value is the inhibitor concentration that results in 50% of HIV-1 protease activity measured by a spectrophotometric assay using a chromophoric peptide.

Structure (SMILES)	Ki
O=C1N(Cc2ccc(CO)cc2)[C@H](COc2ccccc2)[C@H](O)[C@@H](O)[C@@H](COc2ccccc2)N1Cc1ccc(CO)cc1 [(4R,5S,6S,7R)-5,6-dihydroxy-1,3-bis({[4-(hydroxymethyl)phenyl]methyl})-4,7-bis(phenoxymethyl)-1,3-diazepan-2-one]	< 1 nM
O=C1N(Cc2ccc(CO)cc2)[C@H](Cc2ccccc2)[C@H](O)[C@@H](O)[C@@H](Cc2ccccc2)N1Cc1ccc(CO)cc1 [(4R,5S,6S,7R)-4,7-dibenzyl-5,6-dihydroxy-1,3-bis({[4-(hydroxymethyl)phenyl]methyl})-1,3-diazepan-2-one]	< 1 nM

Reference: BindingDB's records for doi:10.1021/jm960728j (Uppsala University, 1997)
